Values joined by “and” are separate entries in the source; they are usually repeats but may differ in a detail not shown here. Identical values can stand only once.

The AUC(0-t) is exposure summed from dosing to a finite time, without extrapolation to infinity. A word on the half-life: it is the time needed for the level to fall by half in the phase considered.

The nature of data set [1]: Clinical features (sedation, amnesia, side effects) after oral midazolam in placebo and piperine pretreatment groups. The conditions noted are these: midazolam 10 mg oral; for End of drug effect / duration of sedation / Onset of drug effect (sedative effect of midazolam): n=20, mean (±SD). The format is in vivo, human.
The nature of data set [2]: Midazolam plasma concentration (HPLC) and one-compartment PK after placebo or piperine pretreatment in healthy volunteers.
Excerpt: This was a cross-over controlled study on two groups (n=10) of healthy volunteers. A one-month period was considered as wash out time between two trials. […] Inclusion criteria: being healthy; age ranging 18 to 35; normal diet; not receiving microsomal enzyme inhibitor or inducer agents for at least 7 days before the study; not using black pepper for at least 7 days before the study. Exclusion criteria: age being below 18 and above 35; smocking; pregnancy; metabolic disorders; high pepper diet, receiving enzyme inhibitors or inducers.
Healthy volunteers regardless of gender were randomly divided into two control and piperine receiving groups (n=20 per group). The subject received placebo or piperine (1 capsule 15 mg of piperine daily for 3 days before midazolam) and midazolam (10 mg as an oral single dose) on fourth day of the study. […] Blood samples (maximum 10 ml) were taken at 0.5, 2.5 and 5 hour after midazolam administration. After a month as a wash out period, the treatment program was exchanged between placebo and piperine groups and all steps were done as same as the previous.
Blood samples were transferred into labeled tubes containing Ca-EDTA and shake gently to mix Ca-EDTA with blood for preventing of coagulation.The samples were centrifuged at 3500 ×g for 15 min and supernatant plasma layer transferred into a blank tube. Until the assay of midazolam or diazepam concentration, the plasma samples were kept at −20°C.
For measurement of the drugs concentration, plasma samples were removed from the freezer condition and left in the laboratory to convert from frozen into a liquid sample. Then 0.5 ml of thawed plasma sample was transferred into a capped falcon tube. In the next step, 100 micl of 1 M NaOH and 100 micl isoamyl alcohol were added. After a gently shaking, 4.5 ml of n-hexan was added and shake for 1 minute. The final solutions were centrifuged at 300 ×g for 5 min. After this step, 4.2 ml of supernatant was drawn and transferred into a plastic tube and 100 miclof 0.05 M HCl was added to the solution and centrifuged similar as the previous. Then the supernatant (organic layer) was discarded and the remaining was directly injected into the HPLC.
The separation was carried out at ambient temperature using a single-column isocratic reverse-phase method. The mobile phase consisted of 75% methanol and 25% water. Flow rate was set at 0.8 ml/min. The extracts were detected by UV detector at 242 nm wavelength. Twenty micl of the aqueous layer of final extract was injected into the HPLC using a Hamilton’s syringe. The injection was repeated 3 times for each sample. Peaks area and height were considered for midazolam and diazepam detection and used for calculation of the drugs concentration in the final plasma extract.
The second; pharmacokinetic (PK) parameters such as absorption rate constant (Ka), clearance, half-life and volume of distribution of midazolam in the placebo and piperine groups were calculated based on assumed one-compartment kinetics using P-Pharm software.
Based on non-parametric distribution, data of three concentrations by time were analyzed using Friedman test. Wilcoxon U-test was used for the results of clearance, volume of distribution and half-life of midazolam in piperine group compared to placebo. The difference of the PK parameters between two groups was considered statistically significant at p<0.05.
Where [3] appears, read: piperine 15 mg x 3 days pretreatment.
The mark [4] stands for this setting: piperine 15 mg x 3 days pretreatment, of n=20.
[5] abbreviates: placebo pretreatment, midazolam 10 mg oral, n=20.

Consider `O=C(/C=C/C=C/c1ccc2c(c1)OCO2)N1CCCCC1` [Piperine, piperine], for which, in data set [1] (setting [3]), the “Subjects with severe sedation and dizziness” value turned out to be 55%; the “End of drug effect / duration of sedation” value is on record as 188 (±59) min; the “Onset of drug effect (sedative effect of midazolam)” value was 11.75 (±4.9) min. Moreover, the “End of drug effect / duration of sedation” value in data set [1] (piperine 15 mg x 3 days pretreatment, listed as piperine) amounted to 188 ± 59 min. In data set [1] (setting [4]), the “Amnesia (frequency, subjects)” value is on record as 7 and the “Sedation (frequency, subjects)” value was found to be 20. Besides, the “Amnesia (frequency, subjects)” value in data set [1] (piperine 15 mg x 3 days pretreatment, of n=20, listed as piperine) was “Seven”. The “Subjects with hiccup when receiving midazolam” value in data set [1] (piperine 15 mg x 3 days pretreatment, disappeared during first hours) was “One”.
Turning to `Cc1ncc2n1-c1ccc(Cl)cc1C(c1ccccc1F)=NC2` [midazolam], in data set [1] (placebo pretreatment), the “Subjects with severe sedation and dizziness” value turned out to be 30%; the “End of drug effect / duration of sedation” value is 102±43 min and 102 (±43) min; the “Onset of drug effect (sedative effect of midazolam)” value is recorded as 11.25 (±4.5) min. In data set [1] (placebo pretreatment, of n=20), the “Amnesia (frequency, subjects)” value stood at 4. In data set [2] (both, human, plasma, po, 10 mg), the area under the curve AUC(0-t) is 411 ± 235 ng·h/mL and the half-life was 1.71 h. In data set [2] (placebo group, after midazolam 10 mg oral, population concentration-time curve), the “Time of maximum plasma midazolam concentration” value is on record as 1.5 h. Moreover, in data set [2] (setting [5]), the “Kel, elimination rate constant of midazolam (Max)” value was 0.42; the “Kel, elimination rate constant of midazolam (Min)” value was determined as 0.390; the “Kel, elimination rate constant of midazolam (mean)” value amounted to 0.41; the “T1/2, half-life of midazolam (Max)” value was determined as 1.78 h. In data set [2] (setting [5]), the “T1/2, half-life of midazolam (Min)” value came to 97.8 min; the “Volume (of distribution) of midazolam (Max)” value is 93.03; the “Volume (of distribution) of midazolam (Min)” value turned out to be 87.63; the “Volume (of distribution) of midazolam (mean)” value is 91.44.

(Values after article PMC3904487, “The effect of piperine on midazolam plasma concentration in healthy volunteers, a research on the CYP3A-involving metabolism” (DARU Journal of Pharmaceutical Sciences, 2014).)
